Source: US10071063B2, “Specific mTOR inhibitors in the treatment of X-linked adrenoleukodystrophy” (FUNDACIÓN DE LA COMUNIDAD VALENCIANA CENTRO DE …, priority 2014, dated 2018)
Where two headings read alike, the source gives them in different places.

Experiments:
[1] = cited from earlier work
[2] = system: control and X-ALD fibroblasts; assay: Immunoblot of LC3-II and p62 in fibroblasts treated or not with VLCFA; assay type: cell-based, human; conditions: excess of VLCFA
Protocol: (§1) Skin biopsies to prepare fibroblasts were collected according to the institutional guidelines for sampling, including informed consent from the persons involved or their representatives. Primary human fibroblasts were cultured in DMEM (containing 10% fetal bovine serum, 100 U/ml penicillin and 100 μg streptomycin) at 37° C. in humidified 5% CO2/95% air. Unless otherwise stated, experiments were carried out with cells at 80% confluence. For starvation conditions (high proteolysis medium, H), cells were switched, after washing, from full growth medium (see above, low proteolysis medium, L) to Krebs-Henseleit medium (118.4 mM NaCl, 4.75 mM KCl, 1.19 mM KH2PO4, 2.54 mM MgSO4, 2.44 mM CaCl2.2H2O, 28.6 mM NaHCO3, 10 mM glucose) containing 10 mM Hepes, pH 7.4 (high proteolysis medium, H) and incubated for 4 h or less at 37° C.
(§2) Tissues were removed from euthanized mice and flash-frozen on liquid nitrogen. Frozen tissues and human fibroblasts samples were homogenized in RIPA buffer (Cell Signaling Technology) using a motor-driven grinder (Sigma-Aldrich), and then sonicated for 2 min at 4° C. in an Ultrasonic processor UP50H (Hielscher-Ultrasound Technology). Samples were subjected to polyacrylamide (10% acrylamide) gel electrophoresis for 60 min at […]. Resolved proteins were transferred onto nitrocellulose membranes and proteins were detected with ECL Western blotting analysis system followed by exposure to CL-XPosure Film (Thermo Scientific). Autoradiographs were scanned and quantified using a GS800 Densitometer (Bio-Rad).
Then, the LC3-II and p62 levels in cell extracts from control and X-ALD fibroblasts treated or not with VLCFA were determined by immunoblot analysis.

[3] = system: control and X-ALD patient fibroblasts; assay: Pulse-chase degradation of long-lived proteins in fibroblasts treated with VLCFA; assay type: cell-based, human; conditions: C26:0 50 μM 24 h, high proteolysis medium; for inhibition at 50 µM: Homo sapiens, Fibroblast, control fibroblasts
Protocol: as §1
For pulse-chase experiments, human control and X-ALD patient fibroblasts were incubated for 48 h in fresh full medium with 1 μCi/ml [3H]valine (Hartmann Analytic Gmbh), followed by a 24 h chase in fresh full medium containing 10 mM L-valine to degrade short-lived proteins. Then, all cultures were incubated for the indicated times in Krebs-Henseleit medium with 10 mM Hepes, pH 7.4, containing 10 mM valine and the indicated additions. Protein degradation, which was analysed 1 h later to ensure maximal effects of the various additions and for only 3 h to avoid possible secondary effects, was calculated at two intervals of 1.5 h by measuring the net release of trichloroacetic acid-soluble radioactivity from the labelled cells into the culture medium and expressed as percentage of protein degraded. The contribution of lysosomal degradation to total protein degradation was calculated using 20 mM NH4Cl (Sigma-Aldrich) plus 100 μM leupeptin (Peptide Institute), as previously described (Fuertes G, et al, 2003, Biochem J 375, 75-86).
In X-ALD, VLCFA accumulate. The effect of the addition of an excess of hexacosanoic acid to fibroblasts isolated from controls and X-ALD patients was tested. First, the degradation of intracellular proteins was analyzed to determine if it was any alteration in control and X-ALD fibroblasts upon addition of an excess of VLCFA, by analyzing in pulse-chase experiments the degradation of long-lived proteins under starvation. Total protein degradation and also, separately, lysosomal protein degradation were estimated by procedures previously described (Fuertes G, et al, 2003, Biochem J 375, 75-86).

Abcd1−/−/Abcd2−/− mice [4] = assay: Bar cross test; assay type: in vivo, mouse; conditions: Abcd1−/−/Abcd2−/− mice at 20 months of age
[5] = system: Abcd1−/− mouse spinal cord; assay: Western blot of autophagy markers LC3-II and p62 in spinal cord of treated Abcd1−/− mice; assay type: in vivo; conditions: temsirolimus 20 mg/kg i.p. three times a week, 3 months with rest periods
Description: (§3) All methods employed in this study were in accordance with the Guide for the Care and Use of Laboratory Animals published by the US National Institutes of Health (NIH publication No. 85-23, revised 1996) and the ethical committees of IDIBELL and the Generalitat de Catalunya. The generation and genotyping of Abcd1 null mice have been previously described. Mice used for experiments were on a pure C57BL/6J background. Abcd1 null and wild type mice were separated into control and treated groups. Temsirolimus (LC laboratories) was administered by intraperitoneal injections three times a week at a dose of 20 mg/kg for 3 months with alternate 3-weeks rest periods between each month of treatment. Control mice were given a placebo injection containing buffer only with the same frequency. Treadmill test was carried out exactly as previously described (López-Erauskin J, et al, 2011, Ann Neurol 70, 84-92). The latency to falling off the belt (time of shocks in seconds) and the number of received shocks were measured. […]
(§4) Tissues were removed from euthanized mice and flash-frozen on liquid nitrogen. […] Resolved proteins were transferred onto nitrocellulose membranes and proteins were detected with ECL Western blotting analysis system followed by exposure to CL-XPosure Film (Thermo Scientific). Autoradiographs were scanned and quantified using a GS800 Densitometer (Bio-Rad).

Abcd1−/−/Abcd2−/− mice [6] = assay: Immunohistochemistry of axonal degeneration markers in spinal cord of Abcd1−/−/Abcd2−/− mice; assay type: in vivo, mouse
Description: (§5) All methods employed in this study were in accordance with the Guide for the Care and Use of Laboratory Animals published by the US National Institutes of Health (NIH publication No. 85-23, revised 1996) and the ethical committees of IDIBELL and the Generalitat de Catalunya. The generation and genotyping of Abcd1 null mice have been previously described. Mice used for experiments were on a pure C57BL/6J background. Abcd1 null and wild type mice were separated into control and treated groups. Temsirolimus (LC laboratories) was administered by intraperitoneal injections three times a week at a dose of 20 mg/kg for 3 months with alternate 3-weeks rest periods between each month of treatment. Control mice were given a placebo injection containing buffer only with the same frequency. Treadmill test was carried out exactly as previously described (López-Erauskin J, et al, 2011, Ann Neurol 70, 84-92). The latency to falling off the belt (time of shocks in seconds) and the number of received shocks were measured. Bar cross test was performed as previously described (López-Erauskin J, et al, 2011, Ann Neurol 70, 84-92). Placebo and drug treated mice within each litter were tested on the treadmill simultaneously and at the time of testing were not identified as to their treatment status.
Spinal cords were harvested from 20-month-old mice (wild type, Abcd1−/−/Abcd2−/− and Abcd1−/−/Abcd2−/− treated with temsirolimus), after perfusion with 4% paraformaldehyde and prepared and incubated for immunohistochemistry as described (López-Erauskin J, et al, 2011. Ann Neurol 70, 84-92).

Abcd1 null mice = assay: Dose tests of temsirolimus in Abcd1 null mice (body response, weight); assay type: in vivo, mouse
Description: as §5
10 month-old Abcd1 null mice were treated with temsirolimus, or vehicle (control), administered by intraperitoneal injection as described previously. Doses tests in order to check mice's body response was firstly performed. […] Thus, to prevent side effects other treatment conditions: intraperitoneal injections of temsirolimus for 3 months with alternate 3-weeks rest periods between each month of treatment, were tested.

[7] = system: Abcd1−/− mouse spinal cord; assay: Oxidized proteins, ATP levels, proteasome activity and immunoproteasome subunits in spinal cord of temsirolimus-treated Abcd1−/− mice; assay type: in vivo; conditions: temsirolimus 20 mg/kg i.p.
Description: as §5
Total RNA was isolated from homogenized spinal cord using the RNeasy mini kit (Qiagen), according to the manufacturer's instructions. RNA samples with RNA Integrity Number (RIN) above 8 and 28S/18S ratio higher than 1 were used for the experiments. Then, first strand cDNA was synthesized for each RNA sample using Superscript II reverse transcriptase (Invitrogen) and random primers. The expression of the candidate proteasome genes was analysed by RQ-PCR using TaqMan® Gene Expression Assays (Applied Biosystems).
Relative quantitation was carried out using the ‘Delta-Delta Ct’ (ΔΔCt) method with tubby RNA as endogenous control. Transcript quantification was performed in duplicate for each sample.
as §2
ATP levels were measured as previously described (Galino J, et al 2011, Antioxid Redox Signal 15, 2095-2107). For proteasome activity assays, tissues were homogenized in an ice-cold buffer (50 mM Tris-HCl pH 7.5, 1 mM dithiothreitol, 0.25 M sucrose, 5 mM MgCl2, 0.5 mM EDTA with 2 mM ATP), using a teflon-on-glass homogenizer, and centrifuged at 12,000×g for 10 min. Chymotrypsin-like activity of proteasomes was determined as described (Launay N, et el, 2013 Brain 136, 891-904), using Suc-LLVY-AMC as substrate. […] The free AMC fluorescence was quantified with a fluorescence multiplate FLUOstar OPTIMA FL reader (BMG) with excitation and emission wavelengths at 380 and 460 nm, respectively. […] All reactions were carried out in duplicate and readings were calibrated using standard solutions of the fluorophores.

mTOR = assay: p70S6K phosphorylation (mTOR activity) by Western blot in spinal cord of treated Abcd1−/− mice; assay type: in vivo, mouse; conditions: temsirolimus 20 mg/kg i.p. three times a week, 3 months with rest periods
Description: as §3, §4

Abcd1−/−/Abcd2−/− mice [8] = assay: Treadmill test; assay type: in vivo, mouse; conditions: Abcd1−/−/Abcd2−/− mice at 20 months of age
[9] = spinal cord, 20-month-old Abcd1−/−/Abcd2−/− mice, to control levels
[10] = spinal cord, Abcd1−/−/Abcd2−/− mice, to control levels, data not shown
[11] = intraperitoneal injections for 3 months with alternate 3-weeks rest periods between each month
[12] = RT-PCR, Abcd1−/− mouse spinal cord

SMILES: CO[C@H]1C[C@@H]2CC[C@@H](C)[C@@](O)(O2)C(=O)C(=O)N2CCCC[C@H]2C(=O)O[C@H]([C@H](C)C[C@@H]2CC[C@@H](O)[C@H](OC)C2)CC(=O)[C@H](C)/C=C(\C)[C@@H](O)[C@@H](OC)C(=O)[C@H](C)C[C@H](C)/C=C/C=C/C=C/1C [rapamycin]
- water solubility [1]: poor

SMILES: CCCCCCCCCCCCCCCCCCCCCCCCCC(=O)O [VLCFA, Hexacosanoic acid]
- LC3-II levels ([2]; X-ALD fibroblasts): no significant differences
- p62 levels ([2]; X-ALD fibroblasts): no significant differences
- LC3-II levels ([2]; control fibroblasts): marked decrease
- p62 levels ([2]; control fibroblasts): increase
- inhibition at 50 µM ([3]; read-out: inhibition of lysosomal degradation of long-lived proteins): ~40%
- inhibition at 50 µM ([3]; read-out: inhibition of total degradation of long-lived proteins): ~15%
- inhibition of lysosomal degradation of long-lived proteins ([3]; X-ALD fibroblasts): no significant inhibitions
- inhibition of total degradation of long-lived proteins ([3]; X-ALD fibroblasts): no significant inhibitions

SMILES: CO[C@H]1C[C@@H]2CC[C@@H](C)[C@@](O)(O2)C(=O)C(=O)N2CCCC[C@H]2C(=O)O[C@H]([C@H](C)C[C@@H]2CC[C@@H](OC(=O)C(C)(CO)CO)[C@H](OC)C2)CC(=O)[C@H](C)/C=C(\C)[C@@H](O)[C@@H](OC)C(=O)[C@H](C)C[C@H](C)/C=C/C=C/C=C/1C [temsirolimus, (3S,6R,7E,9R,10R,12R, 14S,15E,17E,19E,21S,23S,26R,27R,34aS)-9,10,12,13,14,21,22,23,24,25,26,27,32,33,34,34a-Hexa deca hydro-9,27-dihydroxy-3-[(1R)-2-[1S,3R,4R)-4-hydroxy-3-methoxycyclohexyl]-10,21-dimethoxy-6,8,12,14,20,26-hexa meth 3H-pyrido [2,1-][1,4]oxa azaclo hentriacontine-1,5,11,28,29(4H,6H,31H)-pentone 4′-[2,2-bis (hydroxymethyl)propionate]]
- number of slips (Abcd1−/−/Abcd2−/− mice [4]): normalized
- time needed to cross the bar (Abcd1−/−/Abcd2−/− mice [4]): normalized
- LC3-II levels [5]: up-
- p62 levels [5]: down regulated
- motor neurons health in spinal cord (Abcd1−/−/Abcd2−/− mice [6]; XALD mice): improve
- accumulation of APP (axonal damage marker) (Abcd1−/−/Abcd2−/− mice [6]; [9]): reduced
- accumulation of synaptophysin (axonal damage marker) (Abcd1−/−/Abcd2−/− mice [6]; [9]): reduced
- DNA oxidation (Abcd1−/−/Abcd2−/− mice [6]; [10]): reduced
- number of reactive astrocytes (Abcd1−/−/Abcd2−/− mice [6]; [10]): reduced
- number of reactive microglia (Abcd1−/−/Abcd2−/− mice [6]; [10]): reduced
- body weight (Abcd1 null mice; continuous administration during 3 months, intraperitoneal, data not shown): important weight losses
- body weight (Abcd1 null mice; [11]): without significant weight loss
- locomotor performances (Abcd1 null mice; [11]): better
- chymotrypsin-like proteasome activity ([7]; Abcd1−/− mouse spinal cord lysates): normalized
- ATP levels ([7]; Abcd1−/− mouse spinal cord): normalizing
- levels of oxidized proteins ([7]; Abcd1−/− mouse spinal cord): reduced considerably
- induction of immunoproteasome subunit β1i/LMP2 [7, 12]: prevented the induction
- induction of immunoproteasome subunit β5i/LMP7 [7, 12]: prevented the induction
- immunoreactivity for total p70S6K (mTOR): did not change
- phosphorylated p70S6K (mTOR): decrease
- ratio between the time length of the shocks and the number of shocks (Abcd1−/−/Abcd2−/− mice [8]): normalized
